Source: patent US10131652B2, “Pyrimidinyloxy benzene derivatives as herbicides” (E. I. DU PONT DE NEMOURS AND COMPANY, priority 2014, dated 2018)
Where two headings read alike, the source gives them in different places.

Columns and labels:
Test in all cases: Test F pre-/postemergence plant response
Type in all cases: in vivo
[1] = test system: arrowleaf sida (Sida rhombifolia); conditions: Sida rhombifolia, scale 0 to 100, read-out: Plant response rating, Arrowleaf Sida
Source text: (§1) Seeds of plant species selected from corn (Zea mays), soybean (Glycine max), velvetleaf (Abutilon theophrasti), lambsquarters (Chenopodium album), wild poinsettia (Euphorbia heterophylla), palmer pigweed (Amaranthus palmeri), waterhemp (common waterhemp, Amaranthus rudis), surinam grass (Brachiaria decumbens), large (Lg) crabgrass (Digitaria sanguinalis), Brazilian crabgrass (Digitaria horizontalis), fall panicum (Panicum dichotomiflorum), giant foxtail (Setaria faberii), green foxtail (Setaria viridis), goosegrass (Eleusine indica), johnsongrass (Sorghum halepense), ragweed (common ragweed, Ambrosia elatior), barnyardgrass (Echinochloa crus-galli), sandbur (southern sandbur, Cenchrus echinatus), arrowleaf sida (Sida rhombifolia), Italian ryegrass (Lolium multiflorum), dayflower (Virginia (VA) dayflower, Commelina virginica), field bindweed (Convolvulus arvensis), cocklebur (common cocklebur, Xanthium strumarium), momingglory (Ipomoea coccinea), nightshade (eastern black nightshade, Solanum ptycanthum), kochia (Kochia scoparia), yellow nutsedge (Cyperus esculentus), and hairy beggarticks (Bidens pilosa), were planted into a silt loam soil and treated preemergence with test chemicals formulated in a non-phytotoxic solvent mixture which included a surfactant.
(§2) At the same time, plants from these crop and weed species and also waterhemp_RES1, (ALS & Triazine resistant common waterhemp, Amaranthus rudis), and waterhemp_RES2, (ALS & HPPD resistant common waterhemp, Amaranthus rudis) were treated with postemergence applications of test chemicals formulated in the same manner. Plants ranged in height from 2 to 18 cm for postemergence treatments (1- to 4-leaf stage).
(§3) Treated plants and controls were maintained in a greenhouse for 14 to 21 days, after which time all species were compared to controls and visually evaluated. Plant response ratings, summarized in Table F, are based on a scale of 0 to 100 where 0 is no effect and 100 is complete control. A dash (-) response means no test result.

kochia (Kochia scoparia) = conditions: Bassia scoparia, scale 0 to 100, read-out: Plant response rating, Kochia; for pest or weed control at 16 g/ha: 16 g ai/ha; for pest or weed control at 31 g/ha: 31 g ai/ha; for pest or weed control at 125 g/ha: 125 g ai/ha
Source text: as §1, §2, §3

[2] = test system: waterhemp (common waterhemp, Amaranthus rudis); conditions: Amaranthus tuberculatus, scale 0 to 100, read-out: Plant response rating, Waterhemp
Source text: as §1, §2, §3

corn (Zea mays) = conditions: Zea mays, scale 0 to 100
Source text: as §1, §2, §3

[3] = test system: palmer pigweed (Amaranthus palmeri); conditions: Amaranthus palmeri, scale 0 to 100, read-out: Plant response rating, Pigweed, Palmer
Source text: as §1, §2, §3

[4] = test system: green foxtail (Setaria viridis); conditions: Setaria viridis, pre-emergence, scale 0 to 100, read-out: Plant response rating, Foxtail, Green
Source text: as §1, §2, §3

[5] = test system: field bindweed (Convolvulus arvensis); conditions: Convolvulus arvensis, scale 0 to 100, read-out: Plant response rating, Field Bindweed
Source text: as §1, §2, §3

[6] = post-emergence, 8 g ai/ha Postemergence
[7] = post-emergence, 16 g ai/ha Postemergence
[8] = post-emergence, 31 g ai/ha Postemergence
[9] = post-emergence, 62 g ai/ha Postemergence
[10] = post-emergence, 125 g ai/ha Postemergence
[11] = pre-emergence, 8 g ai/ha Preemergence
[12] = pre-emergence, 16 g ai/ha Preemergence
[13] = pre-emergence, 31 g ai/ha Preemergence
[14] = pre-emergence, 62 g ai/ha Preemergence
[15] = pre-emergence, 125 g ai/ha Preemergence

FC(F)c1cc(-c2ccccc2Oc2ncc(Cl)cn2)on1 [Compound 53, 5-chloro-2-[2-[3-(difluoromethyl)-5-isoxazolyl]phenoxy]pyrimidine]
65%: pest or weed control at 31 g/ha [1, 13] | pest or weed control at 16 g/ha [3, 7]
10%: Corn plant response rating (crop injury, 0 = no effect, 100 = complete kill) at 125 g/ha (corn (Zea mays); [10])
55%: pest or weed control at 16 g/ha [5, 7]
98%: pest or weed control at 31 g/ha [1, 8] | pest or weed control at 125 g/ha [1, 10] | pest or weed control at 125 g/ha (kochia (Kochia scoparia); post-emergence, Postemergence) | pest or weed control at 31 g/ha [2, 8]
70%: pest or weed control at 8 g/ha [1, 6] | pest or weed control at 8 g/ha [3, 6]
100%: pest or weed control at 62 g/ha [1, 9] | pest or weed control at 62 g/ha [1, 14] | pest or weed control at 125 g/ha [1, 15] | pest or weed control at 125 g/ha (kochia (Kochia scoparia); pre-emergence, Preemergence) | pest or weed control at 62 g/ha [2, 9] | pest or weed control at 125 g/ha [2, 10] | pest or weed control at 125 g/ha [2, 15] | pest or weed control at 62 g/ha ([2]; pre-emergence, Preemergence) | pest or weed control at 62 g/ha [3, 9] | pest or weed control at 125 g/ha [3, 10] | pest or weed control at 125 g/ha [3, 15] | pest or weed control at 62 g/ha ([3]; pre-emergence, Preemergence)
60%: pest or weed control at 16 g/ha (kochia (Kochia scoparia); post-emergence, Postemergence) | pest or weed control at 125 g/ha [5, 10]
0%: pest or weed control at 8 g/ha [1, 11] | pest or weed control at 8 g/ha (kochia (Kochia scoparia); [11]) | pest or weed control at 16 g/ha (kochia (Kochia scoparia); pre-emergence, Preemergence) | pest or weed control at 8 g/ha [2, 11] | pest or weed control at 16 g/ha [2, 12] | Corn plant response rating (crop injury, 0 = no effect, 100 = complete kill) at 8 g/ha (corn (Zea mays); [6]) | Corn plant response rating (crop injury, 0 = no effect, 100 = complete kill) at 16 g/ha (corn (Zea mays); [7]) | Corn plant response rating (crop injury, 0 = no effect, 100 = complete kill) at 31 g/ha (corn (Zea mays); [8]) | Corn plant response rating (crop injury, 0 = no effect, 100 = complete kill) at 62 g/ha (corn (Zea mays); [9]) | Corn plant response rating (crop injury, 0 = no effect, 100 = complete kill) at 8 g/ha (corn (Zea mays); [11]) | Corn plant response rating (crop injury, 0 = no effect, 100 = complete kill) at 16 g/ha (corn (Zea mays); [12]) | Corn plant response rating (crop injury, 0 = no effect, 100 = complete kill) at 31 g/ha (corn (Zea mays); [13]) | Corn plant response rating (crop injury, 0 = no effect, 100 = complete kill) at 62 g/ha (corn (Zea mays); [14]) | pest or weed control at 8 g/ha [3, 11] | pest or weed control at 16 g/ha [3, 12] | pest or weed control at 8 g/ha ([4]; 8 g ai/ha Preemergence) | pest or weed control at 16 g/ha ([4]; 16 g ai/ha, Preemergence) | pest or weed control at 31 g/ha ([4]; 31 g ai/ha, Preemergence) | pest or weed control at 8 g/ha [5, 11] | pest or weed control at 16 g/ha [5, 12]
90%: pest or weed control at 16 g/ha [1, 7] | pest or weed control at 31 g/ha [3, 8] | pest or weed control at 31 g/ha [3, 13] | pest or weed control at 125 g/ha ([4]; 125 g ai/ha, Preemergence)
15%: Corn plant response rating (crop injury, 0 = no effect, 100 = complete kill) at 125 g/ha (corn (Zea mays); [15])
95%: pest or weed control at 62 g/ha (kochia (Kochia scoparia); post-emergence, 62 g ai/ha, Postemergence) | pest or weed control at 16 g/ha [2, 7] | pest or weed control at 31 g/ha [2, 13]
30%: pest or weed control at 8 g/ha [5, 6]
80%: pest or weed control at 31 g/ha (kochia (Kochia scoparia); post-emergence, Postemergence) | pest or weed control at 8 g/ha [2, 6]
50%: pest or weed control at 8 g/ha (kochia (Kochia scoparia); [6]) | pest or weed control at 62 g/ha (kochia (Kochia scoparia); pre-emergence, Preemergence) | pest or weed control at 31 g/ha [5, 8] | pest or weed control at 62 g/ha [5, 9]
20%: pest or weed control at 16 g/ha [1, 12] | pest or weed control at 31 g/ha (kochia (Kochia scoparia); pre-emergence, Preemergence) | pest or weed control at 62 g/ha ([4]; Preemergence)
